Legend:
[1] = tested on: male mice (ddY strains), reserpine ulcer; assay: Anti-reserpine ulcer activity; type: in vivo; details: Mus musculus, ip, 18 h, i.p., 5 mice, reserpine 10 mg/kg s.c., read-out: Inhibitory Ratio (ulcer area)
Procedure: The test was carried out in accordance with the method described by C. Blackmann, D. S. Campion and F. N. Fastier in British Journal of Pharmacology and Chemotherapy, vol. 14, 112 (1959), which is as follows:
The test compound was intraperitoneally administered to male mice (ddY strains, body weight: 28-33 g), and, 30 minutes later, reserpine was subcutaneously administered in the dose of 10 mg/kg. After 18 hours from the reserpine administration, the animal was sacrificed, and the stomach was isolated. This stomach was inflated with 2 ml of 0.5% formalin and was fixed. Then, the stomach was opened by cutting along the greater curvature, and the ulcer area*^(1) was measured with a stereoscopic microscope. The ulcer areas of the treated group and the control group were compared, and the inhibitory ratios were calculated.
*(1) ulcer area (mm^2): sum of each ulcer area (longitude×latitude).
The anti-reserpine ulcer activity shown when the test compound was intraperitoneally administered is set out in Table 1.

[2] = Arch. int. Pharmacodyn., 1964, 147, 113; cited from earlier work
[3] = tested on: male rats (Donryu strain), stress ulcer; assay: Anti-stress ulcer activity (restraint-immersion); type: in vivo, rat; details: for Ulcer index: control 22.3
Procedure: The test was carried out in accordance with the method described by K. takagi and S. Okabe in The Japanese Journal of Pharmacology, vol. 18, 9 (1968), which is as follows:
Male rats (Donryu strain, body weight: 200-220 g) were placed under restraint in a stress cage and immersed vertically in the water bath kept at 23°±1° C. to the height of the xiphoid of the animal. After restraint-immersion for 8 hours, the animals were sacrificed. The stomach was fixed with formalin and measured in its ulcer index *^(2). The ulcer indices of the treated group and the control group were compared, and the inhibitory ratios were calculated. The test compound was orally administered for 3 days prior to and immediately before the restraint-immersion.
*(2) ulcer index (mm): sum of the length of each linear ulcer.
The anti-stress ulcer activity shown when the test compound was orally administered is set out in Table 2.

[4] = tested on: male rats (Donryu strain), cysteamine duodenal ulcer; assay: Anti-cysteamine duodenal ulcer activity; type: in vivo, rat; details: for Duodenal ulcer index: score 0-5, control 2.45
Procedure: The test was carried out in accordance with the method described by H. Selye and S. Szabo in Nature, vol. 244, 458 (1973), which is as follows. Male rats (Donryu strain, body weight: 200-220 g) had been fasted overnight, were orally treated with 300 mg/kg of cysteamine to induce duodenal ulcer. The test compounds were orally administered four times, that is, for two days prior to, immediately before and on the day next to the treatment of cysteamine. The animals were killed two days after the treatment of cysteamine, and the duodenal ulcer index*^(3) was determined. The duodenal ulcer indices of the treated group and the control group were compared, and the inhibitory ratios were calculated. |^(*3) Duodenal ulcer index: Ulcer of each animal was |scored according to the |following criteria. |0: no lesion |1: hemorrhagic spots |2: product of longitudinal and latitudinal diameters |(S) ≤ 16 mm^2 |3: product of longitudinal and latitudinal diameters |(S) ≤ 16 mm^2, 16 < (s) ≤ 25 |4: product of longitudinal and latitudinal diameters |(S) ≤ 16 mm^2, (s) > 25 mm^2 |5: perforated ulcer The anti-cysteamine duodenal ulcer activity shown when the compound was orally administered is set out in Table 3.

ddY strain male mouse = assay: Acute toxicity, ddY strain male mouse; type: in vivo; details: 5,000 mg/kg orally given
From the text: (§1) The acute toxicity of the compound A is set out in Table 4.

Donryu strain male rat = assay: Acute toxicity, Donryu strain male rat; type: in vivo; details: 1,000 mg/kg orally given
From the text: as §1

[5] = 100 mg/kg/day × 4, p.o., Compound A marked *significant inhibition, probability less than 0.05
[6] = 300 mg/kg/day × 4, p.o., Compound A marked *significant inhibition, probability less than 0.05

For `CC(C)=CCCC(=CCCC(C)=CCC/C(C)=C/CO)CO` [Compound L, (E,E,E), (E,Z,E), (E,E,Z) & (E,Z,Z)11-hydroxymethyl-3,7,15-trimethyl-2,6,10,14-hexadecatetraen-1-ol], which inhibition in vivo at 100 mg/kg [1] is on record?
Its inhibition in vivo at 100 mg/kg is 55.3%.

With `CC(C)=CCCC(C)=CCCC(C)=CCCC(=O)OC/C=C(\C)CCC=C(C)C` [Gefarnate, geranyl farnesylacetate, reference compound] as the compound, how does the anti-ulcer activity [2] read?
Its anti-ulcer activity is “has an anti-ulcer activity”.

What about the “Inhibitory ratio (ulcer index)” value [3, 5] of the same compound?
The value was -13.

What about the Ulcer index ([3]; 100 mg/kg/day × 4, p.o.) of the same compound?
Its Ulcer index is 25.3 mm.

What about the “Inhibitory ratio (ulcer index)” value ([3]; 300 mg/kg/day × 4, p.o.) of the same compound?
The value was -57.

What about the Ulcer index ([3]; 300 mg/kg/day × 4, p.o.) of the same compound?
Its Ulcer index is 35.0 mm.

And the “Inhibitory ratio (duodenal ulcer index)” value [4, 6]?
Its value is 10.

And the Duodenal ulcer index ([4]; 300 mg/kg/day × 4, p.o.)?
Its Duodenal ulcer index is 2.20.

What about the inhibition in vivo at 100 mg/kg [1] of the same compound?
The inhibition in vivo at 100 mg/kg was 10%.

For `CC(C)=CCC/C(C)=C/CCC(C)=CCCC(=CCC/C(C)=C/CO)CO` [Compound O, 7-Hydroxymethyl-3,11,15,19-tetramethyl-2,6,10,14,18-eicosapentaen-1-ol], which inhibition in vivo at 122 mg/kg ([1]; 122 mg/kg) is on record?
The inhibition in vivo at 122 mg/kg was 74.2%.

What does the source list for `NC(=O)CC[C@H](N)C(=O)O` [L-Glutamine, reference compound]?
Inhibitory ratio (duodenal ulcer index) ([4]; 1000 mg/kg/day × 4, p.o.): 31; Duodenal ulcer index ([4]; 1000 mg/kg/day × 4, p.o.): 1.70

Which inhibition in vivo at 77.8 mg/kg ([1]; 77.8 mg/kg) does the source give for `CC(C)=CCCC(=CCC/C(C)=C/CO)CO` [Compound M, (E,Z) & (E,E)7-hydroxymethyl-3,11-dimethyl-2,6,10-dodecatrien-1-ol] here?
The inhibition in vivo at 77.8 mg/kg was 60.1%.

Which inhibition in vivo at 193 mg/kg ([1]; 193 mg/kg) does the source give for `CC(C)=CCC/C(C)=C/CCC(C)=CCCC(=CCC/C(C)=C/COC(=O)c1ccccc1)COC(=O)c1ccccc1` [Compound Q, 7-Hydroxymethyl-3,11,15,19-tetramethyl-2,6,10,14,18-eicosapentaen-1-ol dibenzoate] here?
Its inhibition in vivo at 193 mg/kg is 56.2%.

With `CC(C)=CCC/C(C)=C\CCC(=CCC/C(C)=C/CO)CO` [Compound K, (E,Z,Z) & (E,E,Z)7-hydroxymethyl-3,11,15-trimethyl-2,6,10,14-hexadecatetraen-1-ol] as the compound, how does the inhibition in vivo at 100 mg/kg [1] read?
The inhibition in vivo at 100 mg/kg was 58.7%.

For `CCCCCCCCCCCC(=O)OC/C=C(\C)CC/C=C(/CC/C=C(\C)CCC=C(C)C)COC(=O)CCCCCCCCCCC` [Compound F, (E,Z,E)7-hydroxymethyl-3,11,15-trimethyl-2,6,10,14-hexadecatetraen-1-ol dilaurate], which inhibition in vivo at 220 mg/kg ([1]; 220 mg/kg) is on record?
Its inhibition in vivo at 220 mg/kg is 63.3%.

For `CC(=O)OC/C=C(\C)CCC=C(CCC=C(C)CC/C=C(\C)CCC=C(C)C)COC(C)=O` [Compound P, 7-Hydroxymethyl-3,11,15,19-tetramethyl-2,6,10,14,18-eicosapentaen-1-ol diacetate], which inhibition in vivo at 150 mg/kg ([1]; 150 mg/kg) is on record?
The inhibition in vivo at 150 mg/kg was 45.7%.

With `COC/C=C(\C)CC/C=C(/CC/C=C(\C)CCC=C(C)C)COC` [Compound G, (E,Z,E)7-hydroxymethyl-3,11,15-trimethyl-2,6,10,14-hexadecatetraen-1-ol dimethyl ether] as the compound, how does the inhibition in vivo at 109 mg/kg ([1]; 109 mg/kg) read?
The inhibition in vivo at 109 mg/kg was 45%.

For `CC(=O)OC/C=C(\C)CC/C=C(/CC/C=C(\C)CCC=C(C)C)COC(C)=O` [Compound D, (E,Z,E)7-hydroxymethyl-3,11,15-trimethyl-2,6,10,14-hexadecatetraen-1-ol diacetate], which inhibition in vivo at 127 mg/kg [1] is on record?
Its inhibition in vivo at 127 mg/kg is 54.2%.

Which Death/Survival (ddY strain male mouse) does the source give for `CC(C)=CCC/C(C)=C/CC/C(=C/CC/C(C)=C/CO)CO` [Compound A, (E,Z,E)7-hydroxymethyl-3,11,15-trimethyl-2,6,10,14-hexadecatetraen-1-ol] here?
Its Death/Survival is 0/5.

And the Death/Survival (Donryu strain male rat)?
Its Death/Survival is 0/5.

What about the “Inhibitory ratio (ulcer index)” value ([3]; 10 mg/kg/day × 4, p.o.) of the same compound?
Its value is 17.

What about the Ulcer index ([3]; 10 mg/kg/day × 4, p.o.) of the same compound?
The Ulcer index was 18.5 mm.

And the “Inhibitory ratio (ulcer index)” value ([3]; 30 mg/kg/day × 4, p.o., *significant inhibition, probability less than 0.05)?
Its value is 37.

And the Ulcer index ([3]; 30 mg/kg/day × 4, p.o.)?
Its Ulcer index is 13.8 mm.

What about the “Inhibitory ratio (ulcer index)” value [3, 5] of the same compound?
The value was 43.

What about the Ulcer index ([3]; 100 mg/kg/day × 4, p.o.) of the same compound?
Its Ulcer index is 12.7 mm.

And the “Inhibitory ratio (duodenal ulcer index)” value ([4]; 100 mg/kg/day × 4, p.o.)?
The value was 18.

What about the Duodenal ulcer index ([4]; 100 mg/kg/day × 4, p.o.) of the same compound?
The Duodenal ulcer index was 2.00.

And the “Inhibitory ratio (duodenal ulcer index)” value [4, 6]?
Its value is 34.

What about the Duodenal ulcer index ([4]; 300 mg/kg/day × 4, p.o.) of the same compound?
The Duodenal ulcer index was 1.56.

And the inhibition in vivo at 100 mg/kg [1]?
The inhibition in vivo at 100 mg/kg was 68.4%.

Which inhibition in vivo at 105 mg/kg ([1]; 105 mg/kg) does the source give for `C/C(=C\CC/C(C)=C/CCC(=CCC/C(C)=C/CO)CO)CO` [Compound N, 7,15-Dihydroxymethyl-3,11-dimethyl-2,6,10,14-hexadecatetraen-1-ol] here?
The inhibition in vivo at 105 mg/kg was 64.5%.

With `CC(C)=CCC/C(C)=C/CCC(=CCCC(C)=CCO)CO` [Compound C, (E,Z,E), (E,E,E), (Z,Z,E) & (Z,E,E)7-hydroxymethyl-3,11,15-trimethyl-2,6,10,14-hexadecatetraen-1-ol] as the compound, how does the inhibition in vivo at 100 mg/kg [1] read?
The inhibition in vivo at 100 mg/kg was 59%.

Which inhibition in vivo at 127 mg/kg [1] does the source give for `CC(=O)OC/C=C(\C)CC/C=C(\CC/C=C(\C)CCC=C(C)C)COC(C)=O` [Compound I, (E,E,E)7-hydroxymethyl-3,11,15-trimethyl-2,6,10,14-hexadecatetraen-1-ol diacetate] here?
Its inhibition in vivo at 127 mg/kg is 64.5%.

With `CC(C)=CCC/C(C)=C/CC/C(=C\CC/C(C)=C\CO)CO` [Compound J, (Z,E,E)7-hydroxymethyl-3,11,15-trimethyl-2,6,10,14-hexadecatetraen-1-ol] as the compound, how does the inhibition in vivo at 100 mg/kg [1] read?
The inhibition in vivo at 100 mg/kg was 49.4%.

For `CC(C)=CCC/C(C)=C/CCC(=CCC/C(C)=C/CO)CO` [Compound B, (E,Z,E) & (E,E,E)7-hydroxymethyl-3,11,15-trimethyl-2,6,10,14-hexadecatetraen-1-ol], which inhibition in vivo at 100 mg/kg [1] is on record?
The inhibition in vivo at 100 mg/kg was 65%.

For `CC(C)=CCC/C(C)=C/CC/C(=C\CC/C(C)=C/CO)CO` [Compound H, (E,E,E)7-hydroxymethyl-3,11,15-trimethyl-2,6,10,14-hexadecatetraen-1-ol], which inhibition in vivo at 100 mg/kg [1] is on record?
Its inhibition in vivo at 100 mg/kg is 57%.

For `CC(C)=CCC/C(C)=C/CC/C(=C/CC/C(C)=C/COC(=O)c1ccccc1)COC(=O)c1ccccc1` [Compound E, (E,Z,E)7-hydroxymethyl-3,11,15-trimethyl-2,6,10,14-hexadecatetraen-1-ol dibenzoate], which inhibition in vivo at 171 mg/kg ([1]; 171 mg/kg) is on record?
Its inhibition in vivo at 171 mg/kg is 64.5%.

Source: US4260551A, “Polyprenyl derivatives” (Sankyo Company Limited, priority 1979, dated 1981)
